In patent publication US12083101B2, “Biaryl derivatives as YAP/TAZ-TEAD protein-protein interaction inhibitors” (Novartis AG, priority 2020, dated 2024) one finds IC50 data, which are given here for 16 compounds.

The target in this assay is Avi-humanTEAD4 217-434 / Cy5 labeled humanYAP 60-100 (Homo sapiens (Human), UniProt Q15561). The experiment in a line: TR-FRET YAP-TEAD4 in-vitro biochemical assay. The format is binding. The settings on record: 1 nM Avi-humanTEAD4 217-434, 20 nM Cy5-humanYAP 60-100, 1 h room temperature. As to the method: N-terminus Cy5 labeled humanYAP^60-100 (20 nM) was then added to this preparation. Compounds were dissolved at 10 mM in 100% DMSO and serial dilutions were made in 100% DMSO. The diluted compound solutions were incubated in white 384-well plates (Greiner Bio-One) for 1 h at room temperature with the above described mix. The final DMSO concentration present in the assay was 1%. […] The IC50 values were estimated by fitting the data by nonlinear fit regression (GraphPad Prism).
Sequence of Avi-humanTEAD4 217-434 / Cy5 labeled humanYAP 60-100 (Q15561 217-434): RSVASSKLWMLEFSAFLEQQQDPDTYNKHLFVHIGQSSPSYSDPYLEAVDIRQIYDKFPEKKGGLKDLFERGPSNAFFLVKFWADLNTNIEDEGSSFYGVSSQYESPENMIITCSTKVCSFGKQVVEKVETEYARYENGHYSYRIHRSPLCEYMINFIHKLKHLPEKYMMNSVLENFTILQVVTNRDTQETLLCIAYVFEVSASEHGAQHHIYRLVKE
With `C[C@]1(O)CC[C@@H](NC[C@@]2(c3ccccc3)Cc3c(cc(F)c(Cl)c3-c3c(C(N)=O)ccc(OC[C@H]4CCCO4)c3F)O2)CC1` (atropisomer, axis not shown) [Example 67a, 2-((2S,4S)-5-chloro-6-fluoro-2-((((cis)-4-hydroxy-4-methylcyclohexyl)amino)methyl)-2-phenyl-2,3-dihydrobenzofuran-4-yl)-3-fluoro-4-(((R)-tetrahydrofuran-2-yl)methoxy)benzamide], the IC50 (usually the midpoint of a concentration-inhibition curve) turned out to be 0.002 µM.
Turning to `C[C@]1(O)CC[C@H](NC[C@@]2(c3ccccc3)Cc3c(cc(F)c(Cl)c3-c3c(C(N)=O)ccc(OC[C@H]4CCCO4)c3F)O2)CC1` (atropisomer, axis not shown) [Example 67b, 2-((2S,4S)-5-chloro-6-fluoro-2-((((trans)-4-hydroxy-4-methylcyclohexyl)amino)methyl)-2-phenyl-2,3-dihydrobenzofuran-4-yl)-3-fluoro-4-(((R)-tetrahydrofuran-2-yl)methoxy)benzamide], half-maximal inhibition (IC50) was put at 0.003 µM.
Then `CCc1ccc(C(N)=O)c(-c2c(Cl)c(F)cc3c2C[C@@](CN[C@H]2CC[C@](C)(O)CC2)(c2ccccc2)O3)c1F` (atropisomer, axis not shown) [Example 68a, 2-((2S,4S)-5-chloro-6-fluoro-2-((((trans)-4-hydroxy-4-methylcyclohexyl)amino)methyl)-2-phenyl-2,3-dihydrobenzofuran-4-yl)-4-ethyl-3-fluorobenzamide], with 0.01 µM; and `CCc1ccc(C(N)=O)c(-c2c(Cl)c(F)cc3c2C[C@@](CN[C@H]2CC[C@@](C)(O)CC2)(c2ccccc2)O3)c1F` (atropisomer, axis not shown) [Example 68b, 2-((2S,4S)-5-chloro-6-fluoro-2-((((cis)-4-hydroxy-4-methylcyclohexyl)amino)methyl)-2-phenyl-2,3-dihydrobenzofuran-4-yl)-4-ethyl-3-fluorobenzamide], with 0.012 µM; and `CC(=O)N1CCC(NC[C@@]2(c3ccccc3)Cc3c(cc(F)c(Cl)c3-c3c(C(N)=O)ccc(OC(F)F)c3F)O2)CC1` (atropisomer, axis not shown) [Example 70, 2-((2S,4S)-2-(((1-acetylpiperidin-4-yl)amino)methyl)-5-chloro-6-fluoro-2-phenyl-2,3-dihydrobenzofuran-4-yl)-4-(difluoromethoxy)-3-fluorobenzamide], with 0.02 µM.
To `C[C@]1(O)CC[C@H](NC[C@@]2(c3ccccc3)Cc3c(cc(F)c(Cl)c3-c3c(C(N)=O)ccc(OCc4ncccn4)c3F)O2)CC1` (atropisomer, axis not shown) [Example 71a, 2-((2S,4S)-5-chloro-6-fluoro-2-((((trans)-4-hydroxy-4-methylcyclohexyl)amino)methyl)-2-phenyl-2,3-dihydrobenzofuran-4-yl)-3-fluoro-4-(pyrimidin-2-ylmethoxy)benzamide] belongs 0.002 µM; to `C[C@]1(O)CC[C@@H](NC[C@@]2(c3ccccc3)Cc3c(cc(F)c(Cl)c3-c3c(C(N)=O)ccc(OCc4ncccn4)c3F)O2)CC1` (atropisomer, axis not shown) [Example 71b, 2-((2S,4S)-5-chloro-6-fluoro-2-((((cis)-4-hydroxy-4-methylcyclohexyl)amino)methyl)-2-phenyl-2,3-dihydrobenzofuran-4-yl)-3-fluoro-4-(pyrimidin-2-ylmethoxy)benzamide], 0.001 µM.
For the compound `CC(C)(C)NC[C@@]1(c2ccccc2)Cc2c(cc(F)c(Cl)c2-c2c(C(N)=O)ccc(OC(F)F)c2F)O1` (atropisomer, axis not shown) [Example 73, 2-((2S,4S)-2-((tert-butylamino)methyl)-5-chloro-6-fluoro-2-phenyl-2,3-dihydrobenzofuran-4-yl)-4-(difluoromethoxy)-3-fluorobenzamide], the IC50 is 0.014 µM.
Regarding `C[C@@H](CO)NC[C@@]1(c2ccccc2)Cc2c(cc(F)c(Cl)c2-c2c(C(N)=O)ccc(OC(F)F)c2F)O1` (atropisomer, axis not shown) [Example 75, 2-((2S,4S)-5-chloro-6-fluoro-2-((((S)-1-hydroxypropan-2-yl)amino)methyl)-2-phenyl-2,3-dihydrobenzofuran-4-yl)-4-(difluoromethoxy)-3-fluorobenzamide], the IC50 was found to be 0.038 µM.
To `CC1(NC[C@@]2(c3ccccc3)Cc3c(cc(F)c(Cl)c3-c3c(C(N)=O)ccc(OC(F)F)c3F)O2)CC1` (atropisomer, axis not shown) [Example 76, 2-((2S,4S)-5-chloro-6-fluoro-2-(((1-methylcyclopropyl)amino)methyl)-2-phenyl-2,3-dihydrobenzofuran-4-yl)-4-(difluoromethoxy)-3-fluorobenzamide] belongs 0.05 µM; to `COCCNC[C@@]1(c2ccccc2)Cc2c(cc(F)c(Cl)c2-c2c(C(N)=O)ccc(OC(F)F)c2F)O1` (atropisomer, axis not shown) [Example 77, 2-((2S,4S)-5-chloro-6-fluoro-2-(((2-methoxyethyl)amino)methyl)-2-phenyl-2,3-dihydrobenzofuran-4-yl)-4-(difluoromethoxy)-3-fluorobenzamide], 0.071 µM; to `NC(=O)c1ccc(OC(F)F)c(F)c1-c1c(Cl)c(F)cc2c1C[C@@](CNCCN1CCCC1=O)(c1ccccc1)O2` (atropisomer, axis not shown) [Example 78, 2-((2S,4S)-5-chloro-6-fluoro-2-(((2-(2-oxopyrrolidin-1-yl)ethyl)amino)methyl)-2-phenyl-2,3-dihydrobenzofuran-4-yl)-4-(difluoromethoxy)-3-fluorobenzamide], 0.16 µM.
In turn, `NC(=O)c1ccc(OC(F)F)c(F)c1-c1c(Cl)c(F)cc2c1C[C@@](CN[C@H]1CC[C@H](n3cnnn3)CC1)(c1ccccc1)O2` (atropisomer, axis not shown) [Example 79, 2-((2S,4S)-2-((((trans)-4-(1H-tetrazol-1-yl)cyclohexyl)amino)methyl)-5-chloro-6-fluoro-2-phenyl-2,3-dihydrobenzofuran-4-yl)-4-(difluoromethoxy)-3-fluorobenzamide] gave an IC50 of 0.011 µM.
Then `NC(=O)c1ccc(OC(F)F)c(F)c1-c1c(Cl)c(F)cc2c1C[C@@](CN[C@H]1C[C@H](COC(F)F)C1)(c1ccccc1)O2` (atropisomer, axis not shown) [Example 80, 2-((2S,4S)-5-chloro-2-(((trans-3-((difluoromethoxy)methyl)cyclobutyl)amino)methyl)-6-fluoro-2-phenyl-2,3-dihydrobenzofuran-4-yl)-4-(difluoromethoxy)-3-fluorobenzamide], with 0.014 µM.
`NC(=O)c1ccc(OC(F)F)c(F)c1-c1c(Cl)c(F)cc2c1C[C@@](CN[C@H]1C[C@H](F)C1)(c1ccccc1)O2` (atropisomer, axis not shown) [Example 82, 2-((2S,4S)-5-chloro-6-fluoro-2-(((trans-3-fluorocyclobutyl)amino)methyl)-2-phenyl-2,3-dihydrobenzofuran-4-yl)-4-(difluoromethoxy)-3-fluorobenzamide] yielded an IC50 of 0.119 µM.
With `C[C@]1(NC[C@@]2(c3ccccc3)Cc3c(cc(F)c(Cl)c3-c3c(C(N)=O)ccc(OC(F)F)c3F)O2)CC[C@H](O)CC1` (atropisomer, axis not shown) [Example 84, 2-((2S,4S)-5-chloro-6-fluoro-2-((((trans)-4-hydroxy-1-methylcyclohexyl)amino)methyl)-2-phenyl-2,3-dihydrobenzofuran-4-yl)-4-(difluoromethoxy)-3-fluorobenzamide], the IC50 was 0.041 µM.
